Results taken from patent US8715155B2, “Embryo development and survival” (University of Tennessee Research Foundation, priority 2005, dated 2014).
Like-named read-outs stand apart in the source and are kept apart here.

How the values were obtained:
[1] = system: 16- to 32-cell pre-compacted (in vitro-produced) embryos; test: Culture of pre-compacted (in vitro-produced) embryos with PGF2α or PGE2; assay type: cell-based, bovine; conditions: vs control
Protocol: Embryos are produced by a modified protocol for in vitro production of embryos described by Edwards and Hansen, Biol. Reprod. 55:340-346 (1996). Pre-compacted 16- to 32-cell stage embryos are rapidly washed in KSOM media (Biggers, J. D. 1991. J. Reprod. Fertil. 91:543) supplemented with polyvinyl alcohol (PVA) 3 mg/ml (0.3%). The embryos are evaluated for quality (normal shape, defined blastomeres, extruded blastomeres, cytoplasmic fragmentation, even cytoplasm), are evenly sorted in four groups (formed by embryos of good quality), are transferred to experimental treatments in a 4-well plate as described below, and are returned to the incubator (5.5% CO2, 7% O2, and 87.5% N2 at 38.5° C.). Embryos remain in each treatment for 4 additional days. Embryo development is assessed using IETS (International Embryo Transfer Society) guidelines for classification of bovine embryos.
Dilutions (i.e., treatments) of PGF2α (Cayman Chemical Co.; Ann Arbor, Mich.) are prepared to obtain 0, 1, 10 and 100 ng/mL. Treatments are placed in each well of a 4-well plate (500 μL/well) and equilibrated in the incubator (5.5% CO2, 7% O2, and 87.5% N2 at 38.5° C.) for at least 5 h prior to embryo placement. […]
Data are analyzed to test for blastocyst development and hatching rates using an incomplete block design and a randomized block design, respectively. […]

[2] = system: recipient cattle; conditions: intramuscular injection immediately prior to or after non-surgical embryo transfer; vs controls; cited from earlier work
[3] = system: progestin-supplemented cows; conditions: cited from earlier work
[4] = system: compacted (in vivo-derived) morula stage embryos; test: Culture of compacted (in vivo-derived) morula-stage embryos with PGF2α; assay type: cell-based, bovine; conditions: 0.1, 1 or 10 ng/mL PGF2α for 24 h
Protocol: In vivo-derived glycerol-frozen morula-stage bovine embryos are thawed utilizing a three-step glycerol removal procedure. After washing, embryos are allowed to regain normal morphology for 30 min in Vigro holding medium and are sorted by stage of development and quality according with the IETS guidelines for classification of bovine embryos. For this study, a total of 4 replicates are used.
Schrick, et al, Biol. Reprod. 49:617-621 (1993) reported 0.64 ng/mL of PGF2α in flush media from short cycle cows and a negative association of PGF2α concentration with embryo quality. Based on these findings, concentrations of 0 (control, KSOM-PVA), 0.1, 1, and 10 ng/mL of PGF2α in culture medium are selected as treatments. Each treatment is placed in a different well of a 4-well plate (500 μL/well) and then maintained in the incubator (5.5% CO2, 7% O2, and 87.5% N2 at 38.5° C.) for at least 5 h before placement of embryos to allow equilibration of medium. […]
Morula embryos (Stage 4) of quality grade 1, 2 or 3 are rapidly washed four times in KSOM-PVA and randomly assigned to one of four treatments: 1) control (n=110); 2) 0.1 ng/mL PGF2α (n=108); 3) 1 ng/mL PGF2α (n=109), 4) 10 ng/mL PGF2α (n=109) and are placed in the incubator (5.5% CO2, 7% O2, and 87.5% N2 at 38.5° C.). […] Data are analyzed as in Example 1.a.

[5] = system: Pre-compacted 16- to 32-cell stage bovine embryos; conditions: 1 ng/ml PGF on days 4 to 6 (48 h culture)
Protocol: Pre-compacted 16- to 32-cell stage bovine embryos (day 4 post fertilization) are washed in KSOM-PVA and divided into four groups, each of which is cultured for 48 hours in KSOM-PVA containing one of the following: (1) 1000 nM AL-8810, n=95 (AL-8810 group); (2) 1 ng/ml PGF, n=91 (PGF group); (3) 1000 nM AL-8810+1 ng/ml PGF, n=90 (AL-8810+PGF group); or (4) KSOM-PVA without AL-8810 or PGF, n=84 (Control group).
Following the 48 hour culture, embryos from each group are placed in HEPES-TALP and embryonic development is assessed by a technician who is uninformed of the treatments of the embryos in each group. Embryos from each treatment group are washed in KSOM-PVA and transferred to a 4-well plate with KSOM-PVA for further culture until day 8 post fertilization, when embryonic development is again assessed.

With `CCCCC[C@H](O)/C=C/[C@H]1[C@H](O)CC(=O)[C@@H]1C/C=C\CCCC(=O)O` [PGE2, Prostaglandin E2] the blastocyst development ([1]; 5 ng/mL PGE2 in medium, P>0.10) was “does not differ between control and PGE2 treatments”.
For `Cc1c(Nc2ncccc2C(=O)O)cccc1C(F)(F)F` [flunixin meglamine], the pregnancy rates [2] is given as “Pregnancy rates were significantly higher”.
In the case of prostaglandin F2α [PGF2α], the pregnancy rates ([3]; PGF2α administered between days 5 and 8 of pregnancy, vs saline controls) is listed as “decreased pregnancy rates compared to saline controls”, the pregnancy rates ([3]; PGF2α administered on days 10 to 13 or days 15 to 18) is listed as “no effect on pregnancy rates” and the blastocyst development ([1]; 1, 10 or 100 ng/mL PGF2α in medium, 4 days culture, P=0.002) is listed as “reduced blastocyst development when compared to control”. The “development at least two stages beyond morula (IETS guidelines)” value ([4]; then 48 h without, P>0.10) was “does not differ between treatments”, the hatching rates ([4]; vs control, P=0.05) was “decreased hatching rates when compared to control” and the “percentage of embryos reaching blastocyst stage on day 8” value [5] was “decreases the percentage of embryos reaching blastocyst stage on day 8”.
